Data on 8 compounds can be found in US9518254B2, “Compositions and methods for identifying enzyme and transport protein inhibitors” (San Diego State University Research Foundation, priority 2009, dated 2016).

In data set [1] the test system is HIV-1 protease (PR). The format is cell-based. The note with it: SupT1 PR/Gal4 clone, 1 μg/mL Dox; for inhibitor concentration resulting in eGFP activation: analyzed 50 hrs later, range tested 1 nM to 20 μM.
For data set [2], the system named is tet-responsive element (TRE) / rtTA. The experiment in a line: Doxycycline activation titration of clonal SupT1 cells (Tet-On induction of eGFP reporter). Type of data set: cell-based. The source says: To obtain an inducible cell line, we utilized the tetracycline inducible system (Tet-On). For this purpose we constructed two lentiviral vectors; one harboring a 7× Tetracycline Response Element (TRE) upstream the gene of interest and another expressing the reverse tet-transactivator (rtTA) coupled to an IRES-mCherry cassette to corroborate rtTA expression. In this system, the TRE element is bound and activated by rtTA only in the presence of an inducer (Tet or Dox). Gal4, PR/Gal4 and PRm/Gal4 were all transferred into the TRE inducible vector (see Figures).
In order to optimize the assay for maximal Gal4, PR/Gal4 or PRm/Gal4 induction, we analyzed the effect of increasing levels of Dox. Cells with 0, 50, 100, 250, 500, 750, 1,000, and 2,000 ng/mL Dox were either treated with 10 uM DMSO or 10 uM Indinavir and analyzed 32 hours later. TRE-Gal4 cells reached saturation with Doxycycline at about 1,000 ng/mL whether Indinavir was present or not. […] Again, as with transiently transfected 293 cells, TRE-PR/Gal4 cells had little to non-detectable eGFP expression at any given Dox concentration in the absence of 10 μM Indinavir.
(§1) FIG. 22 graphically illustrates data determining the optimal conditions for activating the assay to screen for PR inhibition. FIG. 22A graphically illustrates a Doxycycline titration. Clonal SupT1 cells harboring an inducible Gal4, PR/Gal4 or PRm/Gal4 were pre-incubated in a 96 well plate with either DMSO or 10 μM Indinavir and then either left untreated, or activated with […] of Dox. Cells were analyzed by flow cytometry and gated to determine the number of cells positive for eGFP expression. FIG. 22B graphically illustrates a time course of eGFP Induction in response to Doxycyline activation in the presence of DMSO or a PI. SupT1 clones harboring Gal4, PR/Gal4, or PRm/Gal4 were pre-incubated in a 96 well plate with either DMSO or 10 μM Indinavir and then activated with 1 μg/mL Dox. Cells were analyzed at either 4, 8, 12, 16, 20, 25, 50 or 75 hours by flow cytometry and gated for eGFP positive expression.

Data set [3] has as its system HIV-1 protease (PR). Type of data set: cell-based. The note with it: HEK293T cells pre-treated with 10 uM inhibitor, co-transfected with reporter and pcDNA-PR/Gal4.
Method: It was of critical importance to verify the ability for the PR/Gal4 fusion to activate the reporter eGFP by the addition of PR inhibitors. For that purpose, 293T cells were pre-treated with 10 μM Indinavir and then co-transfected with reporter and pcDNA-PR/Gal4 vectors.
293T cells were transfected as follows. 15 μl of 2 mg/mL Polyethylenimine linear 25 kD (Polysciences, Inc.) were added to 125 μl of DMEM in a 1.8 ml Eppendorf tube. 3 μg of each DNA was added drop-wise to each tube. Tubes were mixed and incubated for 20 min at RT. This mixture was then added drop-wise to 293T cells in a 10 cm plate at ˜60-75% confluence. Cells were then analyzed by fluorescence microscopy and/or flow cytometry 24 hrs post transfection.
Top Panel: Fluorescence microscopy of eGFP expression in HEK293T cells 24 hours post transfection with the reporter vector (pFR), or co-transfection with the reporter vector plus either the Gal4, PR/Gal4, or PRm/Gal4 vectors. Bottom panel: HEK293T cells were analyzed by flow cytometry at 24 hours post transfection with the same conditions top panel. Gates were drawn to determine the ability to identify cells with an active PI. […] Quantification of eGFP expression in HEK293T transfected with various assay elements. The numbers of cells under various conditions were quantified for eGFP levels indicative of PR inhibition. Results shown are an average of 3 experiments.
The test system of data set [4] is HIV-1 protease (PR). Type of data set: cell-based.
Excerpt: Finally, cells were infected with virus encoding the reporter, rtTA and inducible wild-type PR/Gal4 (pH-TRE-PR/Gal4) to test the ability for this system in T-cells to indicate the levels of PR activity.
Finally, individual cells from these sorted populations were sorted into a 96 well plate based on the lack of eGFP expression. Clonal cell lines obtained from this experiment were later activated under the same conditions described above, and screened for the individual clones which responded as desired (minimal background and maximal eGFP activation). […] These clones were then expanded and further tested in the following experiments.
To determine the optimal time point for the analysis of eGFP expression in the presence of inhibitor, cells were activated with Dox and analyzed by flow cytometry 4, 8, 12, 16, 20, 25, 50, or 75 hours later. Six-well plates containing 250K cells per well in 3 mL media were treated either with DMSO alone as control, or 1 μg/mL Dox and 10 μM Indinavir.
A 2 ml reaction containing 4 μl of 5 μg/mL Polybrene (Hexadimethrene Bromide, Sigma), 500K SupT1 cells in RPMI (10% FCS, L-glutamine, Pen-strep) and 250 μl frozen viral stocks was mixed, added to wells in 6-well plates, and spun in a hanging bucket rotors Becton Dickinson centrifuge at 1500 RPM, for 120′ at 32° C. Cells were re-suspended and placed in a 37° C. incubator for the analysis of expression at least 72 hours post-infection.
Flow Cytometry was performed on a BD FACSAria with 488 nm and 633 nm lasers. Data was collected on FACSDiva 6.1.1 software and then exported to FlowJo. eGFP expression was detected in the FITC channel and mCherry expression was detected on the PE-Texas-Red channel. Cells were first gated for size and granularity (FSC-A vs SSC-A) followed by doublet gating (FSC-A vs FSC-W and SSC-A vs. SSC-W). Sorted populations were gated on PE-TexasRed vs FITC plot. 250K cells were collected for each sample into 0.5 mL fetal calf serum (FCS) and 1 mL RPMI. Cells were then spun down at 1500 RPM and resuspended in fresh media in 6-well plates. Cells were allowed to grow for at least seven days to allow for expansion and loss of previously activated eGFP expression.
as §1

In data set [5] the test system is SupT1 cells. The note with it: human, 50 h.
Method: (§2) The range chosen extended from 1 nM to 20 μM.
(§3) The selected SupT1 clone expressing rtTA and mCherry, the 5×UAS-eGFP reporter and an inducible PR/Gal4 were activated with 1 μg/mL and incubated with various concentrations (1, 10, 50, 100, 500, 1000, 5000, 10000 or 20000 ng/mL) of an FDA approved PI: Either Amprenavir, Atazanavir, Darunavir, Indinavir, Lopinavir, Nelfinavir, Ritonavir, Saquinavir, or Tipranavir. Cells were then analyzed 50 hrs later for eGFP expression as determined by flow cytometry on a BD FACSAria.
Data set [6] relates to SupT1 cells. The experiment in a line: Cell death in reporter SupT1 T-cell clones incubated with PR inhibitors. The note with it: SupT1 PR/Gal4 clone, 50 hrs.
Method: as §2, §3
The subject of data set [7] is HIV-1 protease (PR). The experiment in a line: Expression of GFP-PR fusion in cells transfected with pcDNA-GFP-PR (fluorescence microscopy). The format is cell-based. The note with it: inhibitor added at 0 and 24 h post transfection. The source says:
In one embodiment, to achieve low levels of protease, e.g., PR, expression in mammalian cells, a tetracycline (Tet) inducible system is used. FIG. 3 illustrates by fluorescence microscopy use of an exemplary vector of the invention, a Tet-inducible HIV-based self-inactivating vector, that allows regulated expression of the gene of interest. In this case, we have used the enhanced green fluorescent protein (eGFP) as the ectopic gene. This vector allows different levels of protein expression. Tight repression and expression of PR at low levels may be crucial to avoid the possible side effects of PR. […] FIG. 3 illustrates by fluorescence microscopy HeLa cells infected with a Tet inducible HIV-based self-inactivating vector. The cells were incubated with 1 μg/ml Tet and eGFP expression was observed by fluorescence microscopy 24 and 72 h post addition of Tet. […]
In summary, FIG. 4 illustrates fluorescent microscopy analysis of cells transfected with pcDNA control (Invitrogen) and pcDNA-GFP-PR. GFP expression was analyzed 24 h post transfection. […]
In summary, FIG. 5 graphically illustrates flow cytometry analysis of cells expressing PR-GFP fusion. Cells transfected with pcDNA (control) or pcDNA-GFP-PR fusions were collected 48 hr post-transfection and analyzed for GFP expression. […]

Molecules are shown by their SMILES.

Regarding `COC(=O)N[C@H](C(=O)N[C@@H](Cc1ccccc1)[C@@H](O)CN(Cc1ccc(-c2ccccn2)cc1)NC(=O)[C@@H](NC(=O)OC)C(C)(C)C)C(C)(C)C` [Atazanavir], the “inhibitor concentration resulting in eGFP activation” value in the data set with HIV-1 protease (PR) [1] is 1 nM.

On to `CC(C)CN(C[C@@H](O)[C@H](Cc1ccccc1)NC(=O)O[C@H]1CO[C@H]2OCC[C@H]21)S(=O)(=O)c1ccc(N)cc1` [Darunavir], for which the “inhibitor concentration resulting in eGFP activation” value with HIV-1 protease (PR) [1] was determined as 1 nM.

With `C[C@H]1c2cccc(O)c2C(=O)C2=C(O)[C@]3(O)C(=O)C(C(N)=O)=C(O)[C@@H](N(C)C)[C@@H]3[C@@H](O)[C@@H]21` [Doxycycline], the “Dox concentration at saturation of eGFP induction” value in data set [2] (TRE-Gal4 cells, with or without 10 uM Indinavir, 32 hours) is reported as “about 1,000 ng/mL”; in data set [2] (TRE-PRm/Gal4 cells, uninhibited and Indinavir-treated, 32 hours), “around 250 ng/mL”. In data set [2] (TRE-PR/Gal4 cells pre-incubated with 10 μM Indinavir, 32 hours), the “Dox concentration at maximal eGFP induction” value is reported as “around 500 ng/mL”. In addition, the “Dox concentration at which activation is saturated” value in data set [2] (clonal SupT1 cells pre-incubated with DMSO or 10 μM Indinavir) was “around 1 μg/mL”.

In the case of `CC(C)(C)NC(=O)[C@@H]1CN(Cc2cccnc2)CCN1C[C@@H](O)C[C@@H](Cc1ccccc1)C(=O)N[C@H]1c2ccccc2C[C@H]1O` [Indinavir], the “eGFP induction by PR/Gal4 fusion in presence of inhibitor” value in the data set with HIV-1 protease (PR) [3] is recorded as “drastic induction”. In the data set with HIV-1 protease (PR) [4] (SupT1 PR/Gal4 clones, Dox 1 μg/mL, PI 10 μM), the “activation of PR/Gal4 clones (GFP positive)” value is listed as ~90%. Also, the “time of initial induction of eGFP expression” value in the data set on HIV-1 protease (PR) [4] (SupT1 clone, 1 μg/mL Dox and 10 μM inhibitor) came to 8 h. In the data set on HIV-1 protease (PR) [4] (SupT1 clone, 1 μg/mL Dox and 10 μM inhibitor, 50 hours), the “eGFP expression (positive cells) by 50 hours” value is listed as ~100%. Besides, in the data set on HIV-1 protease (PR) [4] (clonal SupT1 cells in 96-well plates, pre-incubation with 10 μM PI, Dox activation), the “time at which activation of clones reaches max” value is “around 48 hrs”. For the same compound, the “eGFP induction in presence of inhibitor” value in the data set with HIV-1 protease (PR) [4] (non-clonal SupT1 cells with reporter, rtTA and pH-TRE-PR/Gal4, 1 μg/mL Dox and 10 μM inhibitor) was “large induction of eGFP expression”. Moreover, in the data set on HIV-1 protease (PR) [1] (50 hrs), the “inhibitor concentration inducing nearly full activation of eGFP reporter” value worked out at 5 µM. The “level of reporter activation at low concentrations” value in the data set with HIV-1 protease (PR) [1] (50 hrs, compared with the other FDA-approved PIs) is on record as “lowest levels of reporter activation at low concentrations”.

For the compound `Cc1cccc(C)c1OCC(=O)N[C@@H](Cc1ccccc1)[C@@H](O)C[C@H](Cc1ccccc1)NC(=O)[C@H](C(C)C)N1CCCNC1=O` [Lopinavir], the “concentration resulting in significant cell death, with decline in number of eGFP positive cells” value in the data set on SupT1 cells [5] is listed as “around 1 uM”.

As for `Cc1c(O)cccc1C(=O)N[C@@H](CSc1ccccc1)[C@H](O)CN1C[C@H]2CCCC[C@H]2C[C@H]1C(=O)NC(C)(C)C` [Nelfinavir], in the data set with SupT1 cells [5], the “concentration resulting in significant cell death, with decline in number of eGFP positive cells” value was “around 1 uM”.

Regarding `CC(C)(C)NC(=O)[C@@H]1C[C@@H]2CCCC[C@@H]2CN1C[C@@H](O)[C@H](Cc1ccccc1)NC(=O)[C@H](CC(N)=O)NC(=O)c1ccc2ccccc2n1` [Saquinavir], the “concentration with significant decline in the number of eGFP positive cells (cell death)” value in the data set on SupT1 cells [6] was 20 µM. Also, in the data set with HIV-1 protease (PR) [7], the “expression of N-terminal GFP-PR fusion in presence of inhibitor” value is recorded as “highly expressed”.

Take `CCC[C@@]1(CCc2ccccc2)CC(O)=C([C@H](CC)c2cccc(NS(=O)(=O)c3ccc(C(F)(F)F)cn3)c2)C(=O)O1` [Tipranavir]: in the data set on HIV-1 protease (PR) [1] (50 hrs), the “inhibitor concentration inducing nearly full activation of eGFP reporter” value was determined as 5 µM.
